Results from US11040047B2, “Prodrugs of nucleoside phosphonates” (Katholieke Universiteit Leuven, priority 2017, dated 2021).
pEC50: −log10 of the molar value. Where two headings read alike, the source gives them in different places.

Key:
HEL cells [1] = assay: Cytotoxicity, minimum cytotoxic concentration (cell morphology) in HEL cells; details: minimum concentration causing microscopically detectable alteration of cell morphology
[2] = system: Vaccinia virus (strain Lederle, ATCC VR-118); assay: microbe, parasite or virus in culture; assay type: cell-based; details: Orthopoxvirus vaccinia, HEL 299, 96 h, read-out: Antiviral activity EC50 Vaccinia virus
in vitro = details: human
HEL cells [3] = assay: Cytostatic activity, inhibition of HEL cell growth (CC50); details: read-out: Cytotoxicity HEL cells CC50, concentration reducing cell viability/proliferation by 50%, 3 days
TK− VZV strain 07-1 = assay: microbe, parasite or virus in culture; assay type: cell-based, varicella-zoster virus; details: Human alphaherpesvirus 3, HEL, read-out: Antiviral activity EC50 VZV TK− strain
[4] = system: varicella-zoster virus (VZV) strain Oka; assay: Inhibition of plaque formation, VZV TK+ Oka, in HEL fibroblasts; assay type: cell-based; details: Human alphaherpesvirus 3, HEL, read-out: Antiviral activity EC50 VZV TK+ strain (OKA)
HEL 299 cells = details: human
[5] = system: human cytomegalovirus (HCMV) strain AD-169; assay: Inhibition of virus-induced cytopathicity, HCMV AD-169, in HEL fibroblasts; assay type: cell-based; details: read-out: Antiviral activity EC50 HCMV AD-169 strain
[6] = system: human cytomegalovirus (HCMV) strain Davis; assay: Inhibition of virus-induced cytopathicity, HCMV Davis, in HEL fibroblasts; assay type: cell-based; details: read-out: Antiviral activity EC50 HCMV Davis strain
[7] = system: human adeno virus-2 (clinical isolate C251085); assay: Inhibition of virus-induced cytopathicity, human adeno virus-2, in HEL 299 cells; assay type: cell-based; details: Human mastadenovirus C, 240 h, 10 days, cytopathicity reduced by 50%, read-out: Antiviral activity EC50 Adenovirus 2
[8] = Human betaherpesvirus 5, AD169, HEL cells, reduction of virus-induced cytopathicity by 50%
[9] = Human betaherpesvirus 5, AD169, HEL

Row | SMILES | Cytotoxicity HEL cells MCC (HEL cells [1]; Table 1) | Cytotoxicity HEL cells MCC (HEL cells [1]; Table 2) | pEC50 [2] | CC50 at 3 days (in vitro) | CC50 (HEL cells [3]; Table 1) | pEC50 (TK− VZV strain 07-1) | pEC50 [4] | Cytotoxicity MCC (HEL 299 cells) | pEC50 [5, 8] | pEC50 ([6]; Human betaherpesvirus 5, HEL cells, reduction of virus-induced cytopathicity by 50%) | CC50 at 3 days (in vitro; HEL cells) | pEC50 [7] | pEC50 [5, 9] | pEC50 ([6]; Human betaherpesvirus 5, HEL) | CC50 (HEL cells [3]; Table 2)
1 | Nc1nc2c(ncn2COCCO)c(=O)[nH]1 [Acyclovir, reference compound] | >88.8 | >88.8 | – | – | – | – | – | – | – | – | – | – | – | – | –
2 | O=c1[nH]c(=O)n([C@H]2C[C@H](O)[C@@H](CO)O2)cc1/C=C/Br [Brivudin, reference compound] | >30.0 | >30.0 | 5.24 | > 300 µM | > 300 µM | 4.66 | 7.28 | >250 | – | – | – | – | – | – | –
3 | Nc1ccn(C[C@@H](CO)OCP(=O)(O)O)c(=O)n1 [Cidofovir, reference compound] | >71.6 | >71.6 | 4.30 | – | > 358 µM | – | – | >250 | 5.80 | 6.08 | > 358 µM | 5.00 | – | – | –
4 | CCCCCOC(=O)C[C@H](NP1(=O)CO[C@@H](Cn2cnc3c(N)ncnc32)CO1)C(=O)OCCCCC (stereo partly drawn) [Example 8, Diamyl {(5S)-5-[(6-amino-9H-purin-9-yl)methyl]-2-oxido-1,4,2-dioxaphosphinan-2-yl}-L-aspartate] | 13.6 | 13.6 | 7.11 | 2.73 µM | – | 8.82 | 8.85 | ≥20 | – | – | – | 6.74 | 7.57 | 8.05 | –
5 | CCCCCOC(=O)C[C@H](NP1(=O)CO[C@H](Cn2cnc3c(N)ncnc32)CO1)C(=O)OCCCCC (stereo partly drawn) [Example 9, Diamyl {(5R)-5-[(6-amino-9H-purin-9-yl)methyl]-2-oxido-1,4,2-dioxaphosphinan-2-yl}-L-aspartate] | >18.5 | >18.5 | – | 11.6 µM | – | 7.21 | 7.48 | – | – | – | – | – | 5.36 | 5.79 | –
6 | CCCCCOC(=O)C[C@H](NP1(=O)CO[C@@H](Cn2ccc(N)nc2=O)CO1)C(=O)OCCCCC (stereo partly drawn) [Example 10, Diamyl {(5S)-5-[(4-amino-2-oxopyrimidin-1(2H)-yl)methyl]-2-oxido-1,4,2-dioxaphosphinan-2-yl}-L-aspartate] | 19.4 | 19.4 | – | – | – | 8.20 | 8.26 | – | – | – | 33.1 µM | – | 7.92 | 7.72 | –
7 | CCCCCOC(=O)C[C@H](NP1(=O)CO[C@H](Cn2ccc(N)nc2=O)CO1)C(=O)OCCCCC (stereo partly drawn) [Example 11, Diamyl {(5R)-5-[(4-amino-2-oxopyrimidin-1(2H)-yl)methyl]-2-oxido-1,4,2-dioxaphosphinan-2-yl}-L-aspartate] | >19 | >19 | – | – | – | 5.91 | 6.09 | – | – | – | > 194 µM | – | 5.57 | 5.45 | > 194 µM
8 | CCCCCOC(=O)[C@H](Cc1ccccc1)NP1(=O)CO[C@@H](Cn2cnc3c(N)ncnc32)CO1 (stereo partly drawn) [Example 12, Amyl ((5S)-5-((6-amino-9H-purin-9-yl)methyl)-2-oxido-1,4,2-dioxaphosphinan-2-yl)-L-phenylalaninate] | 9.3 | 9.3 | – | 30.6 µM | – | 8.49 | 9.28 | – | – | – | – | – | 7.51 | 7.77 | –
9 | CCCCCOC(=O)[C@H](CCSC)NP1(=O)CO[C@@H](Cn2cnc3c(N)ncnc32)CO1 (stereo partly drawn) [Example 13, Amyl ((5S)-5-((6-amino-9H-purin-9-yl)methyl)-2-oxido-1,4,2-dioxaphosphinan-2-yl)-L-methioninate] | 4.11 | 4.11 | – | 39.6 µM | – | 8.40 | 8.59 | – | – | – | – | – | 7.49 | 7.54 | –
10 | CCCCCOC(=O)[C@H](C)NP1(=O)CO[C@@H](Cn2cnc3c(N)ncnc32)CO1 (stereo partly drawn) [Example 14, Amyl ((5S)-5-((6-amino-9H-purin-9-yl)methyl)-2-oxido-1,4,2-dioxaphosphinan-2-yl)-L-alaninate] | 23.5 | 23.5 | – | 3.4 µM | – | 8.37 | 8.70 | – | – | – | – | – | 7.19 | 7.19 | –
11 | CCCCCOC(=O)CC[C@H](NP1(=O)CO[C@@H](Cn2cnc3c(N)ncnc32)CO1)C(=O)OCCCCC (stereo partly drawn) [Example 15, Diamyl {(5S)-5-[(6-amino-9H-purin-9-yl)methyl]-2-oxido-1,4,2-dioxaphosphinan-2-yl}-L-glutamate] | 13.2 | 13.2 | – | 0.52 µM | – | 9.02 | 9.24 | – | – | – | – | – | 7.85 | 8.12 | –
12 | CCCCCOC(=O)[C@@H](NP1(=O)CO[C@@H](Cn2cnc3c(N)ncnc32)CO1)C(C)C (stereo partly drawn) [Example 16, Amyl {(5S)-5-[(6-amino-9H-purin-9-yl)methyl]-2-oxido-1,4,2-dioxaphosphinan-2-yl}-L-valinate] | 4.40 | 4.40 | – | 7.76 µM | – | 8.82 | 9.24 | – | – | – | – | – | 8.23 | 8.32 | –
13 | CCCCCOC(=O)[C@H](CC(C)C)NP1(=O)CO[C@@H](Cn2cnc3c(N)ncnc32)CO1 (stereo partly drawn) [Example 17, Amyl {(5S)-5-[(6-amino-9H-purin-9-yl)methyl]-2-oxido-1,4,2-dioxaphosphinan-2-yl}-L-leucinate] | 4.27 | 4.27 | 7.11 | 1.62 µM | – | 9.23 | 9.33 | ≥0.8 | – | – | – | 7.36 | 8.24 | 8.42 | –
14 | CCCCCOC(=O)[C@@H](NP1(=O)CO[C@@H](Cn2cnc3c(N)ncnc32)CO1)[C@@H](C)CC (stereo partly drawn) [Example 18, Amyl {(5S)-5-[(6-amino-9H-purin-9-yl)methyl]-2-oxido-1,4,2-dioxaphosphinan-2-yl}-L-isoleucinate] | 9.96 | 9.96 | – | 12 µM | – | 9.27 | 9.35 | – | – | – | – | – | 8.15 | 8.19 | –
15 | CCCCCOC(=O)[C@@H](NP(=O)(CO[C@H](CO)Cn1cnc2c(N)ncnc21)N[C@H](C(=O)OCCCCC)C(C)C)C(C)C [Example 19, diamyl 2,2′-((((((S)-1-(6-amino-9H-purin-9-yl)-3-hydroxypropan-2-yl)oxy)methyl)phosphoryl)bis(azanediyl))(2S,2′S)-bis(3-methylbutanoate)] | 8.57 | 8.57 | 7.37 | 0.6 µM | – | 9.02 | 8.82 | ≥20 | – | – | – | 7.87 | 7.00 | 7.14 | –
16 | Nc1nc(O)c2ncn(COC(CO)CO)c2n1 [Ganciclovir, reference compound] | >39.2 | >39.2 | – | – | – | – | – | – | 5.13 | – | – | – | – | – | –
17 | Nc1nc2c(ncn2CCC(CO)CO)c(=O)[nH]1 [Penciclovir, reference compound] | >79.0 | – | – | – | > 395 µM | – | – | – | – | – | – | – | – | – | –
